In ChEMBL document CHEMBL4392887, “17- nor-Cephalotane-Type Diterpenoids from Cephalotaxus fortunei” (J Nat Prod, 2019):
Structures can show the parent of a compound that is named as a salt. Active and inactive are the calls of the source. The calls are words filed in the database; no cut-off is given here.

Tests used:
A549 [1] = assay: Cytotoxicity in human A549 cells assessed as inhibition of cell viability incubated for 72 hrs by CCK-8 assay; format: functional, cell-based; details: for IC50: A549, 72 h
HL-60 [2] = assay: Cytotoxicity in human HL60 cells assessed as inhibition of cell viability incubated for 72 hrs by CCK-8 assay; format: functional, cell-based; details: for IC50: HL-60, 72 h
A549 [3] = assay: Cytotoxicity in human A549 cells assessed as inhibition of cell viability at 50 uM incubated for 72 hrs by CCK-8 assay; format: functional; details: A549, 72 h
HL-60 [4] = assay: Cytotoxicity in human HL60 cells assessed as inhibition of cell viability at 50 uM incubated for 72 hrs by CCK-8 assay; format: functional; details: HL-60, 72 h

Row | Structure (SMILES) | IC50 (A549 [1]) [µM] | IC50 (HL-60 [2]) [µM] | inhibition at 50 µM (A549 [3]) [%] | inhibition at 50 µM (HL-60 [4]) [%] | other results
1 | Cc1cc(=O)cc2c3c1[C@@H]1OC4C(C)[C@@]5(C[C@H]2O)C(=O)O[C@H]4[C@]1(O)[C@@H]35 (stereo not given in full) | 11.5 | 17.2 |  |  | 
2 | Cc1cc(=O)cc2c3c1[C@H](O)[C@H]1[C@@H]3[C@]3(CC2)C(=O)O[C@@H]1CC3C (stereo not given in full) | 2.4 | 3.5 |  |  | 
3 | CC1C[C@H]2OC(=O)[C@]13CC[C@@H]1C[C@@H](O)C[C@H](C)C4=C1[C@@H]3[C@@H]2C4=O (stereo not given in full) |  |  | < 50 | < 50 | 
4 | CO[C@@]12c3c4cc(=O)cc(C)c3C[C@@H]1[C@H]1CC(C)[C@@]2(CC4)C(=O)O1 (stereo not given in full) |  |  |  |  | inhibition (A549 [1]): inactive; inhibition (HL-60 [2]): inactive
5 | Cc1cc(=O)cc2c3c1C[C@H]1[C@@H]3[C@]3(C=C2)C(=O)O[C@@H]1CC3C (stereo not given in full) | 1 | 9.8 |  |  | 
6 | CC1C[C@H]2OC(=O)[C@]13CC[C@@H]1CC(=O)C[C@H](C)C4=C1[C@]3(O)[C@@H]2C4=O (stereo not given in full) |  |  | < 50 | < 50 | 
7 | Cc1cc(=O)cc2c3c1C[C@@H]1[C@H]4CC(C)[C@@](CC2)(C(=O)O4)[C@]31O (stereo not given in full) |  |  |  |  | inhibition (A549 [1]): Active; inhibition (HL-60 [2]): inactive
8 | Cc1cc(=O)cc2c3c1[C@@H](O)[C@@H]1[C@H]4CC(C)[C@@](C=C2)(C(=O)O4)[C@]31O (stereo not given in full) |  |  |  |  | inhibition (A549 [1]): inactive; inhibition (HL-60 [2]): inactive
9 | Cc1cc(=O)cc2c3c1C[C@H]1[C@@H]3[C@]3(C[C@H]2O)C(=O)O[C@@H]1CC3C (stereo not given in full) | 22 | > 50 |  |  | 
10 | Cc1cc(=O)cc2c3c1C[C@]1(O)[C@H]4CC(C)[C@@](CC2)(C(=O)O4)[C@]31O (stereo not given in full) | 4.5 | 6.8 |  |  | 
11 | Cc1cc(=O)cc2c3c1C[C@@H]1[C@H]4CC(C)[C@@](C=C2)(C(=O)O4)[C@]31O (stereo not given in full) | 5.7 | 10 to 20 |  |  | 
12 | CC1C[C@H]2OC(=O)[C@]13CC[C@@H]1C[C@H](O)C[C@H](C)C4=C1[C@@H]3[C@@H]2C4=O (stereo not given in full) |  |  | < 50 | < 50 | 
13 | CC1=C[C@@H](O)[C@H](O)[C@@]2(O)CC[C@]34C(=O)O[C@@H]5C(O[C@H]6C1=C2[C@@H]3[C@@H]56)C4C (stereo not given in full) |  |  | < 50 | < 50 | 
14 | Cc1cc(=O)cc2c3c1[C@@H](O)[C@H]1[C@@H]3[C@]3(CC2)C(=O)O[C@@H]1CC3C (stereo not given in full) | 10.3 | > 50 |  |  | 
15 | Cc1cc(=O)cc2c3c1C[C@@H]1[C@@H]4OC(=O)[C@](C[C@H]2O)(C(C)C4O)[C@H]31 (stereo not given in full) | 25.4 | 38.4 |  |  | 
16 | CC1C(O)[C@H]2OC(=O)[C@]13CC[C@]14C[C@@H](O)[C@H](O1)[C@@](C)(O)C1=C4[C@@H]3[C@@H]2C1 (stereo not given in full) |  |  | < 50 | < 50 | 
17 | Cc1cc(=O)cc2c3c1[C@H](O)[C@@H]1[C@@H]4OC(=O)[C@](CC2)(C(C)C4O)[C@H]31 (stereo not given in full) | 2.4 | 2.2 |  |  | 
18 | CC1C(O)[C@H]2OC(=O)[C@]13CC[C@@H]1C[C@@H](O)C[C@H](C)C4=C1[C@]3(O)[C@@H]2C4=O (stereo not given in full) |  |  | < 50 | < 50 | 
19 | CC1C[C@H]2OC(=O)[C@]13CC[C@@H]1CC(=O)C[C@H](C)C4=C1[C@@H]3[C@@H]2C4=O (stereo not given in full) |  |  | < 50 | < 50 | 
20 | COc1cccc2c1C(=O)c1c(O)c3c(c(O)c1C2=O)C[C@@](O)(C(=O)CO)C[C@@H]3O[C@H]1C[C@H](N)[C@H](O)[C@H](C)O1 [DOXORUBICIN HYDROCHLORIDE] | 0.44 | 0.075 |  |  | 
